ChEMBL document CHEMBL1201862, “PubChem BioAssay data set” (2004)
Activity calls are given as the source filed them.

Tests used:
[1] = microbe, parasite or virus in culture; assay type: functional; settings: Mycobacterium tuberculosis
[2] = Artemis endonuclease inhibitor potency, dose response, biochemical, fluorescence intensity (AID 720701); assay type: functional;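 note: Artemis endonuclease enzyme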
[3] = cytotoxicity in COV434 cells, dose response, cytotoxicity control for PAX8 inhibitor project, cell-based, plate reader, dry powder, SA7 (AID 743145); assay type: functional
[4] = PAX2 cell-based inhibition, dose response, selectivity assay for PAX8 inhibitor project, plate reader, dry powder samples (AID 743048); assay type: functional;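 note: HEK293 cells carrying a WT1 promoter luciferase reporter driven by expressed Pax2; potency is for inhibition of Pax2 driven reporter signal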
[5] = PAX5 activity inhibitors, dose response, selectivity assay for PAX8 inhibitor project, cell-based, plate reader, dry powder samples (AID 743047); assay type: functional;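 note: HEK293 cells carrying a Pax5 driven CD19 promoter luciferase reporter; potency of inhibitors that lower reporter luminescence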
[6] = cytotoxicity dependent on PAX8, dose response, cell-based, plate reader, dry powder (AID 743049); assay type: functional
[7] = target: fMet-Leu-Phe receptor (Homo sapiens, UniProt P21462); assay: FPR ligands, dose response (AID 519); assay type: functional
[8] = target: T1, Exodeoxyribonuclease V (Escherichia coli (strain K12), UniProt P04993+P07648+P08394); assay: E. coli RecBCD inhibitors, dose response, counter-screen for AddAB inhibitor project, absorbance, V66 E. coli, mutant T4 phage (AID 492957); assay type: functional, cell-based, Escherichia coli str. K-12 substr. MG1655
T1 sequence (P04993 whole entry): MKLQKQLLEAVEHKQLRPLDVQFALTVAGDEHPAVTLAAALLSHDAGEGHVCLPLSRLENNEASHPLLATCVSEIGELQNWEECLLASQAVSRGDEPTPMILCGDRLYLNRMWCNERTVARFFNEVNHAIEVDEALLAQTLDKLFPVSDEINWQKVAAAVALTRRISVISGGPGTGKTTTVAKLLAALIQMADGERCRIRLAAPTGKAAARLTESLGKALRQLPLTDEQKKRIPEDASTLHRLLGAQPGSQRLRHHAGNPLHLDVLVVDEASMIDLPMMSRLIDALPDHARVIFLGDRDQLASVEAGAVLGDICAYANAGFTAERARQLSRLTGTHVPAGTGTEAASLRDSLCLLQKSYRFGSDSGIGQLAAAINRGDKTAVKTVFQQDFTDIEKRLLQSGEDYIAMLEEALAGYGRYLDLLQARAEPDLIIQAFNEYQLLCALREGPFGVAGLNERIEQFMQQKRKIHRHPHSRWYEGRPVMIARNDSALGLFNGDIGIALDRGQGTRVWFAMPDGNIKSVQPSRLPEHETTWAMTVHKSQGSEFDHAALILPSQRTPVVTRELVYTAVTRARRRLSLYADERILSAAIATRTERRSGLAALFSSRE
T1 sequence (P07648 whole entry): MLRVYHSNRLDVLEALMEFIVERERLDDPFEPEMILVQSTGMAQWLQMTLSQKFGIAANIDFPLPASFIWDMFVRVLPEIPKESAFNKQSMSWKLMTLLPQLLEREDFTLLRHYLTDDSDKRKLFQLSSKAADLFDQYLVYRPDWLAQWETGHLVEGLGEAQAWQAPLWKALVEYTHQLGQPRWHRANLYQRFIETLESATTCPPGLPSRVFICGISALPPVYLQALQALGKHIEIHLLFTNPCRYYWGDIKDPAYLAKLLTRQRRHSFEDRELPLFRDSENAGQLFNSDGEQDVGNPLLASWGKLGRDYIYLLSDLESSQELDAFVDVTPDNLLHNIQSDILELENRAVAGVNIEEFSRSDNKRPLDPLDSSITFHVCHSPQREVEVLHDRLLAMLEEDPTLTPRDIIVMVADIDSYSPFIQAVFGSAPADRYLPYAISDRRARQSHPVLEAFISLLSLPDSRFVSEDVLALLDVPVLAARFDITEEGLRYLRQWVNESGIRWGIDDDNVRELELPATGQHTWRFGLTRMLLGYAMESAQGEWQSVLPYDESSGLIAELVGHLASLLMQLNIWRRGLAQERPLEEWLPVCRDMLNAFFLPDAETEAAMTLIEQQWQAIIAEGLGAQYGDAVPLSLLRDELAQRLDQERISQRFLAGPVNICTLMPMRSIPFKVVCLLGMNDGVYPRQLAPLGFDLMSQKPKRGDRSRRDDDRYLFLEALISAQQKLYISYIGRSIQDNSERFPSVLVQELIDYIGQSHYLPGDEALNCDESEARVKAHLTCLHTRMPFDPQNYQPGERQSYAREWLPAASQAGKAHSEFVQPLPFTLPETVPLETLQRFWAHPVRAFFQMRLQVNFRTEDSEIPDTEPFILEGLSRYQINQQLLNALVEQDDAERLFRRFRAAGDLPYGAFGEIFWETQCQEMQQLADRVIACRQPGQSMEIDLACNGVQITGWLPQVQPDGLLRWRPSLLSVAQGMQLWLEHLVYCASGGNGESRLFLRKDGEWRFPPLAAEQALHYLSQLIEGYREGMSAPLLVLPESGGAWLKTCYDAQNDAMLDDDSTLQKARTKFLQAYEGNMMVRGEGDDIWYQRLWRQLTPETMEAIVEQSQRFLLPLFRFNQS
T1 sequence (P08394 whole entry): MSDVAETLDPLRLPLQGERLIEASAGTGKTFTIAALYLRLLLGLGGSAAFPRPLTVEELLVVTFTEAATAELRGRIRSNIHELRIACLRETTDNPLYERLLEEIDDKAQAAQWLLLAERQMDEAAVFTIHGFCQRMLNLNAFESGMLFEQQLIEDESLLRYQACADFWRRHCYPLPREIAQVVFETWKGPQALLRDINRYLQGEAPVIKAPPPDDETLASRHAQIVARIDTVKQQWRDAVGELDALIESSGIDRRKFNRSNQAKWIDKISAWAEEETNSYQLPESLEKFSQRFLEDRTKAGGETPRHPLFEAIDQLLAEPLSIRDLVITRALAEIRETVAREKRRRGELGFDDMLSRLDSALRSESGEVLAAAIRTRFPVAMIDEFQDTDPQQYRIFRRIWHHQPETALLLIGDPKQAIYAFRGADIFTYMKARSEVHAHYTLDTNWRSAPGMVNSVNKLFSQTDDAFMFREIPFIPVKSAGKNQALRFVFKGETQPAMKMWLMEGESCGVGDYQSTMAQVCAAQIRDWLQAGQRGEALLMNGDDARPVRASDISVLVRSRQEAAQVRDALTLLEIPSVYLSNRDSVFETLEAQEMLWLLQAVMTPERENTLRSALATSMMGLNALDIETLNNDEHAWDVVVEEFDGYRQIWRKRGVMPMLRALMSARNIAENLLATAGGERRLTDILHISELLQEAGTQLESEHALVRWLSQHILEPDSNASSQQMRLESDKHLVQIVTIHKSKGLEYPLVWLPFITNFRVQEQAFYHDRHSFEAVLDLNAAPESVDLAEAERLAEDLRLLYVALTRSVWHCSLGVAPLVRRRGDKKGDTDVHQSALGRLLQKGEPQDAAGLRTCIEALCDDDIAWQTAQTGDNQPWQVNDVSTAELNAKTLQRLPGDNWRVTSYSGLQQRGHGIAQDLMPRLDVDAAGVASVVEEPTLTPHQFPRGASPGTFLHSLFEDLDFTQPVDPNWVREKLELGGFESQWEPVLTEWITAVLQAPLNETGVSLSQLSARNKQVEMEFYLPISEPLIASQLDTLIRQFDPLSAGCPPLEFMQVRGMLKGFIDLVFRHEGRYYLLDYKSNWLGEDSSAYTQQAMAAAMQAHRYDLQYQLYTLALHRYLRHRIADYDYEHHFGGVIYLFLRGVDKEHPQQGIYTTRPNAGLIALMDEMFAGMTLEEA

[9] = target: Beta-galactosidase (Escherichia coli, UniProt Q8VNN2); assay: beta-galactosidase enzyme inhibitors and activators, dose response, artefact control for CCR6 antagonist project, biochemical, E. coli enzyme, set 3 (AID 504712); assay type: functional
[10] = Counterscreen for AddAB inhibitors: absorbance-based bacterial cell-based high throughput dose response assay for inhibitors of bacterial viability. [Related pubchem assays (depositor defined):AID435030, AID449728, AID449731, AID488942, AID488955, AID488956]; assay type: functional
[11] = target: Caspase-6 (Homo sapiens, UniProt P55212); assay: human caspase-6 inhibitors, dose response, biochemical, VEID-R110 fluorescence, cherry-pick (AID 720632)
[12] = HepG2 cell cytotoxicity, dose response, cytotoxicity control, plate reader, cherry-pick, antagonist series (AID 743416); assay type: functional, cell-based
[13] = control 3'UTR Renilla luciferase suppression, dose response, counter-screen for Shn3 inhibitor project, cell-based, Clone20-Shn3RL, cherry-picked (AID 624133); assay type: functional
[14] = system: BJ; assay: cytotoxicity toward Ras-transformed BJeLR fibroblasts, dose response, cell-based, alamar blue fluorescence, cherrypicked samples (AID 2631); assay type: functional; settings: Homo sapiens;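 note: confirmatory dose-response assay in RAS-dependent BJ fibroblasts engineered with TERT, LT and ST, with cytotoxicity read by fluorescence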
[15] = non-specific cell cytotoxicity, dose response, cytotoxicity control for PAX8 inhibitor project, plate reader, dry powder samples (AID 743021); assay type: functional, cell-based
[16] = MC4R antagonists, dose response, counter-screen for LGR2 antagonist project, cell-based, plate reader, cherry pick (AID 743444); assay type: functional;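 note: transfected HEK 293 cells stimulated with alpha-MSH peptide; potency of inhibitors of the alpha-MSH evoked signal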
[17] = LGR2 antagonists, dose response, cell-based, HEK293, CRE-luciferase reporter, cherry pick, set 2 (AID 743343); assay type: functional;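 note: transfected cells were stimulated with diluted bursicon conditioned medium after compound addition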
[18] = A549 cell cytotoxicity, dose response, cytotoxicity control, plate reader, cherry-pick, antagonist series (AID 743412); assay type: functional, cell-based
[19] = miR-122 activators in hepatoma reporter cells, dose response, cell-based, Huh7 psiCHECK-miR122, Renilla luciferase, cherry-picked (AID 651956); assay type: functional;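 note: huh7 hepatoma cells stably carrying a psiCHECK-2 miR-122 sensor plasmid; renilla luciferase signal reporting endogenous miR-122 activity after 48 h compound exposure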
[20] = HEK293T cytotoxicity, dose response, cytotoxicity control for miR-122 modulator project, cell-based, activator set, cherry-pick (AID 720690); assay type: functional;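 note: HEK293T human cells scored for general mammalian cytotoxicity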
[21] = system: HEK293; assay: inhibitors of LMP1-driven NF-kB reporter, dose response, cell-based, HEK293, luciferase, cherry-pick (AID 588343); assay type: functional; settings: Homo sapiens
[22] = HEK293 cell cytotoxicity, dose response, cytotoxicity control, plate reader, cherry-picked samples (AID 743446); assay type: functional, cell-based
[23] = system: BJ; assay: cells; assay type: functional, cell-based; settings: Homo sapiens
[24] = Luminescence Cell-Based Dose Retest to Confirm Inhibitors of Cancer Stem Cells. [Related pubchem assays (depositor defined):AID2717, AID2721]; assay type: functional; settings: Homo sapiens
[25] = Fluorescence-based cell-based high throughput dose response assay for inhibitors of the interaction of nucleotide-binding oligomerization domain containing 2 (NOD2) and the receptor-interacting serine-threonine kinase 2 (RIPK2).; assay type: functional; settings: Homo sapiens
[26] = Shn3 3'UTR reporter inhibitors, dose response, cell-based, Clone20 osteoblasts, firefly luciferase, cherry-picked (AID 624132); assay type: functional;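 note: firefly luciferase luminescence from reporter carrying the Shn3 3'UTR in osteoblasts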
[27] = HepG2 cell cytotoxicity, dose response, cytotoxicity control for Shn3 inhibitor project, CellTiter-Glo, cherry-picked (AID 624134); assay type: functional, cell-based
[28] = cytotoxicity toward DRD oncogenic fibroblasts, dose response, cell-based, non-viral oncogenic, luminescence (AID 1934); assay type: functional; settings: Homo sapiens
[29] = system: BJ; assay: cytotoxicity toward BJ-TERT-LT-ST fibroblasts, dose response, cell-based, RAS-independent, luminescence (AID 1935); assay type: functional; settings: Homo sapiens;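 note: BJ fibroblasts immortalized with TERT plus LT and ST oncogenes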
[30] = target: Paired box protein Pax-8 (Homo sapiens, UniProt Q06710); assay: inhibitors of PAX8-driven TPO luciferase reporter, dose response, RMG-I cells, cherry-pick (AID 687027); assay type: functional, cell-based;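 note: luciferase reporter driven by Pax8 target thyroperoxidase promoter measured by SteadyGlo luminescence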
[31] = system: BJ; assay: cytotoxicity toward BJ-TERT fibroblasts, dose response, cell-based, RAS-independent, luminescence (AID 1933); assay type: functional; settings: Homo sapiens
[32] = system: HEK293; assay: HEK293T cell cytotoxicity, dose response, cytotoxicity control, ATP luminescence, cherry-pick samples (AID 687005); assay type: functional, cell-based; settings: Homo sapiens;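 note: cells exposed to compound for 48 hours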
[33] = HEK293 Cytotoxicity Assay Measured in Cell-Based System Using Plate Reader - 7071-01_Inhibitor_Dose_CherryPick_Activity_Set2.; assay type: functional

Caspase-6, sequence (P55212 24-179 limits assumed): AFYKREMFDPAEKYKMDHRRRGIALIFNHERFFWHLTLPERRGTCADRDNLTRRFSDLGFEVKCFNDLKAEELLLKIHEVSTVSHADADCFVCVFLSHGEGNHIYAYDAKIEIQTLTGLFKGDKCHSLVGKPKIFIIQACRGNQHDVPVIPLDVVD
Caspase-6, sequence (P55212 194-293 limits assumed): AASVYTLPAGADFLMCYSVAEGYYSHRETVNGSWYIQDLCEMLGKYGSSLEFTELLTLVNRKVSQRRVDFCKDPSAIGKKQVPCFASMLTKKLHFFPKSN
fMet-Leu-Phe receptor, sequence (P21462 whole entry): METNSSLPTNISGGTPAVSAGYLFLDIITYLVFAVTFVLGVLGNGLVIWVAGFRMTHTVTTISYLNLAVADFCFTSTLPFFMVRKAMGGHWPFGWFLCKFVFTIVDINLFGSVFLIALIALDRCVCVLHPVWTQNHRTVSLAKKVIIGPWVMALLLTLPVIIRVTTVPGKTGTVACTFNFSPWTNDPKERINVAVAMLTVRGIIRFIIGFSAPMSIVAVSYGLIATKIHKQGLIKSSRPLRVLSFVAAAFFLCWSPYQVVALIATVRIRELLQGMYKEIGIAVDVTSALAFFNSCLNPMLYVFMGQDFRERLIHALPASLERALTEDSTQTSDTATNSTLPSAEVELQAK
Beta-galactosidase, sequence (Q8VNN2 whole entry): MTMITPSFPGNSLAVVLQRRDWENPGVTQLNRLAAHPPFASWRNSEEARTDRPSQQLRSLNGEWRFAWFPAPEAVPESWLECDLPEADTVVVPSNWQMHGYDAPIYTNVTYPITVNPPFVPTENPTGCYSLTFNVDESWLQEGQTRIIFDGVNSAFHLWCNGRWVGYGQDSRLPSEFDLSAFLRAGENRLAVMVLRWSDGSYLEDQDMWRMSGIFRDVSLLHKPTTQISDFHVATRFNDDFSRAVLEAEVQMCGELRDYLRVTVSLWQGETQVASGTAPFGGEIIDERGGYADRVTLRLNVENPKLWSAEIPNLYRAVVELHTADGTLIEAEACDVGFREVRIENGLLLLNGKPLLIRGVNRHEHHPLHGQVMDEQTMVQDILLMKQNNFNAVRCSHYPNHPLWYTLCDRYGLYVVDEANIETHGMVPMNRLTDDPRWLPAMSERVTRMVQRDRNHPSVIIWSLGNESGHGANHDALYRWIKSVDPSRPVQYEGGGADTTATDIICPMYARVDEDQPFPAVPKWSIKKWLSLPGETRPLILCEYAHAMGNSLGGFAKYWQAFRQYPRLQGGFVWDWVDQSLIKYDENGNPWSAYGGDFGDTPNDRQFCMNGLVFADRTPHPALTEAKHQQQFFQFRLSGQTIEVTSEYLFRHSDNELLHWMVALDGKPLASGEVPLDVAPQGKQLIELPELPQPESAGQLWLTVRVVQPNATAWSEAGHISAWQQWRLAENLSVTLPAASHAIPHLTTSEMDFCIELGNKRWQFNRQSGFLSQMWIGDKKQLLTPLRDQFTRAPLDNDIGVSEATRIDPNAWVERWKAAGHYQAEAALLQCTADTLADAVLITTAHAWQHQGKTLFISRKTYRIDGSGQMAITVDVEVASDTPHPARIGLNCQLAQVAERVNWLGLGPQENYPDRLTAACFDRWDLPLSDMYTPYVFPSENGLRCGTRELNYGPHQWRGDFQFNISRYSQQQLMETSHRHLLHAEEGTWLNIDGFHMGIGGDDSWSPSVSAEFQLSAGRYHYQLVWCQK
Paired box protein Pax-8, sequence (Q06710 whole entry): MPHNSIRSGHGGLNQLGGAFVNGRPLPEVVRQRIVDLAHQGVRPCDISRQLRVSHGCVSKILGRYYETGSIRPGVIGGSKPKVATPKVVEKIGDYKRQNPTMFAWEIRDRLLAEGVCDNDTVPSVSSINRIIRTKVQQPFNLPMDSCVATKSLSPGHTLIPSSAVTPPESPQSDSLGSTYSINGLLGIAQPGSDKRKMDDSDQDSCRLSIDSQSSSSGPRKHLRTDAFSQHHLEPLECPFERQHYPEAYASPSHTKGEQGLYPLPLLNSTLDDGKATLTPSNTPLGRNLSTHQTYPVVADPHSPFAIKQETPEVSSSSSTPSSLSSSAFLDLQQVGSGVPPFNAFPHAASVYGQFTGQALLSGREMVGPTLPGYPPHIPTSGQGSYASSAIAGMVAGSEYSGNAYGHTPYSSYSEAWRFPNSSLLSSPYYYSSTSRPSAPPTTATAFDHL

COc1ccc2nc(NC(=O)C3CCCN(S(=O)(=O)c4cccs4)C3)sc2c1 (stereo not drawn)
CC50 [1]: 35.4 µM (active)
IC50 [2]: > 20 µM (inactive)

N#C[C@@H]1[C@@H](c2ccc(C3=CCCCC3)cc2)[C@@H](CO)N1C(=O)NC1CCCCC1
AC50 [3]: 67.3 µM (active)
AC50 [4]: > 32 µM (inactive)
AC50 [5]: 29.3 µM (active)
AC50 [6]: 10.6 µM (active)

O=C(C1=C(O)C(=O)N(Cc2ccccc2)C1c1ccco1)c1ccco1 (stereo not drawn)
Ki [7]: 12.4 µM (active)

O=C(O)c1ccc(N/N=C/C=C/c2ccc([N+](=O)[O-])o2)cc1
IC50 [8]: > 119 µM (inactive)
IC50 [9]: 33 µM (active)
IC50 [10]: 55.5 µM (inactive)
AC50 [11]: 3.34 µM (active)

Cc1cccc(-n2ncc(Cl)c(Cl)c2=O)c1
AC50 [12]: 8.69 µM (active)
AC50 [13]: 12.4 µM (active)
EC50 [14]: 0.556 µM (active)
AC50 [15]: 25.6 µM (active)
AC50 [16]: 27.5 µM (active)
AC50 [17]: 20.4 µM (active)
AC50 [18]: 7.6 µM (active)
AC50 [19]: 8.05 µM (active)
AC50 [20]: 2.27 µM (active)
AC50 [21]: 3.08 µM (active)
AC50 [22]: 7.36 µM (active)
EC50 [23]: > 150 µM (inconclusive)
AC50 [24]: 2.66 µM (active)
IC50 [25]: 5.33 µM (active)
AC50 [26]: 5.8 µM (active)
AC50 [27]: 40.7 µM (active)
EC50 [28]: 5.17 µM (active)
EC50 [29]: 5.1 µM (inconclusive)
AC50 [30]: 5.11 µM (active)
EC50 [31]: 1.02 µM (active)

COc1ccc(S(=O)(=O)N[C@H]2C=C[C@H](CC(=O)N3CCC(Cc4ccccc4)CC3)O[C@@H]2CO)cc1
AC50 [32]: 9.52 µM (active)
AC50 [33]: 9.52 µM (active)
